Measured values taken from patent US20080280837A1, “Biologically Active Compounds with Anti-Angiogenic Properties” (priority 2004, published 2008).

Key:
[1] = Human hepatocyte microsomal degradation half-life; type: in vitro ADME
Protocol: the final concentration of ACN in the microsomal incubation was 1%,
samples were incubated in a water bath at 37° C., and
45 μL aliquots were taken over 2 hr, quenched with ACN, placed on ice for 30 min to precipitate proteins and assayed by LC/MS/MS using either the Quattro Ultima Pt, LCT or Q-T of instruments.

[2] = system: MCF—7 cell line; assay: Cell proliferation assay (CellTiter 96 AQueous One) as indicator of toxicity, MCF-7; type: cell-based; details: MCF—7, 100 μM
Protocol: (§1) A simple cell proliferation assay was used to determine the in vitro cytotoxicity of “compound 1.” Selected cell lines were cultured according to their specific requirements. The optimal cell density required for each cell line was determined. All compounds were tested at a single concentration in triplicate. Cell viability was determined using the CellTiter 96® AQueous One reagent from Promega Corporation.
(§2) Assays are performed by adding the test compound to the cells in culture and incubating the cells for a fixed period. The number of viable cells remaining after the incubation period is determined by adding a small amount of the CellTiter 96® AQueous One Solution Reagent directly to culture wells, incubating for 1-4 hours and then recording absorbance at 490 nm with a 96 well plate reader.
(§3) Controls in the assay include untreated cells, wells without cells and cells treated with know cytotoxic agents. Data is presented as % inhibition of cell proliferation.

[3] = system: Jurkat cell line; assay: Cell proliferation assay (CellTiter 96 AQueous One) as indicator of toxicity, Jurkat; type: cell-based; details: 100 μM
Protocol: as §1, §2, §3

[4] = target: T1, SSTR-1 (Homo sapiens, UniProt P30872); assay: Radioligand binding screen against somatostatin subtype SSTR-1; details: concentration required to displace 50% of the competitive radioligand; read-out: IC50 SSTR1
T1 construct: expressed in transfected cells
T1 sequence (P30872 whole entry, species assumed): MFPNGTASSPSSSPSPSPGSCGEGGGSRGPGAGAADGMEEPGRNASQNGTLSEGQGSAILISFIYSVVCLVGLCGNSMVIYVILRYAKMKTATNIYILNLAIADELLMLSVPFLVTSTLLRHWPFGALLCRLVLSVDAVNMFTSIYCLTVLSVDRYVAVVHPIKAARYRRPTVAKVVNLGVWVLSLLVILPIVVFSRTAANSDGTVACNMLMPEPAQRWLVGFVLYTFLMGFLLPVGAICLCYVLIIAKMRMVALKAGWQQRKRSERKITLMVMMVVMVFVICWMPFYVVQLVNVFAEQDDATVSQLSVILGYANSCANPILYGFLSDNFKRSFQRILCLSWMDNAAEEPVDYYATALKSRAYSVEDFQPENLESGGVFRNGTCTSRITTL
Method in brief: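 Competition binding on membranes from cells expressing the cloned human receptor, with [125I]Tyr11-somatostatin-14 as radioligand and excess cold ligand defining non-specific binding. Reaction stopped with ice-cold wash buffer, then filtered and counted. Compounds run in duplicate at one concentration in primary screening; curves fitted where generated.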

[5] = target: T2, Human SST5 somatostatin receptor (SSTR5) (Homo sapiens, UniProt P35346); assay: Filter plate assay for SST5 receptor, displacement of [125I]SST-14; type: binding
T2 construct: expressed in transfected cells; host or cells: HEK-293 EBNA
T2 sequence (P35346 whole entry): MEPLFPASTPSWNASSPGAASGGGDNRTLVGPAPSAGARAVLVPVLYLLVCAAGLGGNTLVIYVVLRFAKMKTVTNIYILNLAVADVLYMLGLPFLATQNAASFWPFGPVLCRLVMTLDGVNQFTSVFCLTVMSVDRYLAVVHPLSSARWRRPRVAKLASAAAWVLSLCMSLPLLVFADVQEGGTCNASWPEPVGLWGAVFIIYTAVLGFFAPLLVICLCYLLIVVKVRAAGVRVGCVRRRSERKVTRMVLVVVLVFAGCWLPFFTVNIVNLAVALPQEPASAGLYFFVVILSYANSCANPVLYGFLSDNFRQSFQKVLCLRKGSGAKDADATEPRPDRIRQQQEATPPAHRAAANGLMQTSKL
Method in brief: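 HEK-293 EBNA membranes expressing human SST5 (5.5 μg) incubated 60 min at 25 °C with 4 nM [125I]SST-14 and compound in pH 7.5 Tris/EGTA/MgCl2/sucrose buffer. Bound radioactivity collected on PEI-coated glass fiber filters and counted; triplicate 1:5 dilution series from 125 μM, non-specific binding with excess cold ligand.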

[6] = predicted from human microsomal degradation

For `COC[C@H]1O[C@H](OCCc2ccccc2)[C@H](NC(=O)CCCN)[C@@H](OCc2ccc3ccccc3c2)[C@@H]1O` [Compound 1], the CLint scaled ([1]; human hepatocyte microsomes, pH 7.4, predicted from human microsomal degradation) was 62.2 mL/min/kg, the half-life ([1]; human hepatocyte microsomes, human microsomal incubation, 37° C., pH 7.4, read-out: Degradation t1/2) was 32.2 min and the “Predicted CLblood” value [1, 6] was 15.5 mL/min/kg. The “Predicted EH” value [1, 6] was 0.75, the “Inhibition of cell proliferation” value [2] was “no inhibitory effect” and the “Inhibition of cell proliferation” value [3] was “no inhibitory effect”. The IC50 [4] was greater than 12500 nM, the IC50 ([5]; concentration required to displace 50% of the competitive radioligand, read-out: IC50 SSTR5) was 322 nM and the “selectivity SSTR5” value ([5]; normalized IC50: lowest IC50 for a compound = 1) was 1. The “Hillslope SSTR5” value ([5]; slope of binding curve) was 0.71.
